Test results as given in publication PMC5607274, “An iterative compound screening contest method for identifying target protein inhibitors using the tyrosine-protein kinase Yes” (Scientific Reports, 2017).

What was measured:
[1] = target: T1, human recombinant Yes [a.a. 2–543 (end)] (Homo sapiens, UniProt P07947); test: ADP-Glo kinase assay, inhibition rates of Yes phosphorylation activity (first and second screening); assay type: biochemical; details: 10 μmol L−1 compound; for First screening IR (inhibition rate): mean of n = 4 wells; for Second screening IR (inhibition rate): dissolved from fresh powder, n = 4
T1 construct: human recombinant Yes [a.a; 2–543 (end)]; purchased BPS Bioscience 40488
T1 sequence (P07947 2-543): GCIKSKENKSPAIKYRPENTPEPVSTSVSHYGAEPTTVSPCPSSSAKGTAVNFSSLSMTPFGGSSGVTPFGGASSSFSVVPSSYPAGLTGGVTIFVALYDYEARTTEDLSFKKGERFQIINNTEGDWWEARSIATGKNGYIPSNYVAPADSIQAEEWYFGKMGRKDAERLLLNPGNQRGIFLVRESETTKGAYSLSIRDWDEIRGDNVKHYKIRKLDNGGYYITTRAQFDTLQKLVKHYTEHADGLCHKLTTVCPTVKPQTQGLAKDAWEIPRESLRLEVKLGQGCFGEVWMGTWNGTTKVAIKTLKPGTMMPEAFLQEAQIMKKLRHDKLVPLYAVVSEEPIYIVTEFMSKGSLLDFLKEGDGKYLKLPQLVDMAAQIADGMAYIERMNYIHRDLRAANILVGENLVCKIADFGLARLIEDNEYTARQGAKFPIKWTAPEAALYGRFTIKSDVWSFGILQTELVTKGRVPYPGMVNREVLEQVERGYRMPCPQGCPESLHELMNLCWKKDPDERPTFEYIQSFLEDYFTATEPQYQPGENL
Procedure, shortened: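 Hits from a first pass were rescreened after re-dissolution from fresh powder. The first pass reported the mean inhibition rate of quadruplicate wells per compound. Activity was that of recombinant human Yes [a.a. 2–543] kinase, read out with the ADP-Glo ADP-detection method.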

[2] = target: T1, human recombinant Yes [a.a. 2–543 (end)]; test: ADP-Glo kinase assay, IC50 determination (dose-response curves) for Yes; assay type: biochemical; details: for dose-response relationship (DRR): IC50 determination; for "inhibition activity" in the whole range of concentrations: dose-response test, no DRR; for IC50: 5.5-nmol L−1 Yes, 0.013-mmol L−1 ATP, 0.2-mg mL−1 substrate (poly Glu-Tyr, 4:1)
Protocol: All inhibitory assays of the phosphorylation activity of Yes were performed in accordance with the Promega Technical Manual for the ADP-Glo™ Kinase Assay (Fitchburg, WI, USA. Catalog number: V9102). The human recombinant Yes [a.a. 2–543 (end)] was purchased from BPS Bioscience (catalog number: 40488). The details of the assay protocol and reagent information are given elsewhere.
The screening was conducted in three steps consisting of the first screening, the second screening, and the IC50 determination, as can be illustrated in Fig. 1b. First, we determined the inhibition rates of the 1,991 compounds. Each compound was placed in 4 wells of a 384-well plate. In total, 80 compounds were assayed on one plate and the other wells were used for positive and negative controls. The compounds were randomly placed on plates so that compounds proposed by one group were not placed on a plate together. A mean of four inhibition rates for each compound was compared to criteria for the first screening. […] Second, the inhibition rates of the screened compounds were determined on one plate using the same procedure of the first screening, where compounds were dissolved from fresh powder. […] Screened compounds were then evaluated for their IC50 values. […]
determine their IC50 values. Each dose-response curve was initially built using 8-point, 2-fold serial dilutions starting at 100 μmol L−1, with each concentration point in 4 […]
Assay was carried out under the same conditions as the primary screening, in summary, the final reagent concentrations were 5.5-nmol L−1 Ye s , 0.013-mmol L−1 ATP, and 0.2-mg mL−1 substrate (poly Glu-Tyr peptides, Glu:Tyr=4:1).
The curves were analyzed by GraphPad Prism (sigmoidal fit with variable slope). IC50 […]
standard deviations of the measurements.

Row | SMILES | First screening IR (inhibition rate) [1] [%] | Second screening IR (inhibition rate) [1] [%] | dose-response relationship (DRR) [2] | "inhibition activity" in the whole range of concentrations [2] | IC50 [2] [µM]
1 | Fc1ccc(-c2cc3ncnc(N/N=C/c4ccncc4)c3s2)cc1 [Compound Z50080378] | 67 | 55 | did not reveal a DRR | around 50% | –
2 | CC(=O)Nc1ccc(/C=N/Nc2ncnc3cc(-c4ccc(F)cc4)sc23)cc1 [Compound Z50080181] | 51 | 47 | did not reveal a DRR | around 50% | –
3 | COc1ccc(Br)cc1/C=N/Nc1ncnc2nc[nH]c12 [Compound Z57745307] | 62 | 61 | did not reveal a DRR | around 50% | –
4 | COc1ccccc1-c1nnc(SCC(=O)c2ccc(NC(C)=O)cc2F)n1-c1ccccc1 [Compound Z51187459] | 0 | – | – | – | –
5 | CCc1nc2ccccc2c(C(=O)OCC(=O)Nc2cc(C(N)=O)cc(C(N)=O)c2)c1C [Compound Z19092990] | 2 | – | – | – | –
6 | O=C(CN1C(=O)NC(Cc2c[nH]c3ccccc23)C1=O)Nc1ccc(-c2ccccc2)cc1 (stereo not shown) [Compound Z16202306] | 6 | – | – | – | –
7 | COC(=O)c1ccc2c(=O)[nH]c(COC(=O)Cc3ccsc3)nc2c1 [Compound Z54469331] | 2 | – | – | – | –
8 | Nc1ncnc(Nc2ccccc2F)n1 [Compound Z56931704] | 12 | – | – | – | –
9 | NC(=O)c1cc(NC(=O)COC(=O)c2c3c(nc4ccccc24)/C(=C\c2ccccc2Cl)CC3)cc(C(N)=O)c1 [Compound Z18607575] | 10 | – | – | – | –
10 | CN1CCc2nc(NC(=O)CCC(=O)c3ccccc3)sc2C1 [Compound Z54410536] | -2 | – | – | – | –

The remaining lines, values ahead:

Row | First screening IR (inhibition rate) [1] [%] | Second screening IR (inhibition rate) [1] [%] | dose-response relationship (DRR) [2] | "inhibition activity" in the whole range of concentrations [2] | IC50 [2] [µM] | SMILES
11 | 67 | 64 | good DRR | – | 37.4 | O=C(CSc1ccc2ccccc2n1)Nc1nsc(-c2ccc(Cl)cc2)n1 [Compound Z275023406]
12 | 29 | 49 | did not reveal a DRR | around 50% | – | CCCC(C)c1cc(NC(=O)c2ccc(N3CCNC3=O)cc2)n[nH]1 (stereo not shown) [Compound Z1283491630]
13 | 72 | 50 | good DRR | – | 20 | Cc1cc(N2CCc3c(ncn3C3CC3)C2)c2cc(OC(F)F)ccc2n1 [Compound Z1252403274]
14 | 9 | – | – | – | – | Cc1cc(C(=O)Nc2nc3ccccc3n2C2CCCC2)nn1C [Compound Z1251687771]
15 | -4 | – | – | – | – | CCN(C(C)C)S(=O)(=O)c1ccc(S(C)(=O)=O)cc1 [Compound Z736710192]
16 | 19 | – | – | – | – | O=C(Nc1ccc2[nH]c(=O)[nH]c2c1)c1occc1-c1ccccc1 [Compound Z118811128]
17 | -2 | – | – | – | – | Cn1c2ccccc2n2c3ccccc3c(=O)c(C#N)c12 [Compound Z734296158]
18 | 68 | – | – | – | – | O=C(Nc1cc(-c2ccc(Br)s2)[nH]n1)c1ccc2c(c1)COC2 [Compound Z956276516]
19 | 54 | -2 | – | – | – | CC(C)n1ncc2cc(/C=C3/CN(C)Cc4c3nc3ccccc3c4C(=O)O)c(Cl)nc21 [Compound Z336032562]
20 | 20 | – | – | – | – | O=C(Nc1nc(-c2ccccc2)cs1)c1cc2ccccc2s1 [Compound Z87524039]
21 | 2 | – | – | – | – | Cc1ccc(Cn2c(=O)c3ccccc3n3c(CCC(=O)NCCCN4CCOCC4)nnc23)cc1 [Compound Z1169067737]
22 | 12 | – | – | – | – | C/C(=C\C(=O)N1CCN(c2cnccn2)CC1)C12CC3CC(CC(C3)C1)C2 [Compound Z850748812]
23 | -8 | – | – | – | – | N#Cc1ccccc1CSCCNc1cc(=O)n2ccccc2n1 [Compound Z203909940]
24 | 6 | – | – | – | – | CC(Nc1ccc(Oc2cccc3cccnc23)cc1)C(N)=O (stereo not shown) [Compound Z1651676792]
